This note sets out measurements from ChEMBL document CHEMBL1158696, “Bioactive asterosaponins from the starfish Culcita novaeguineae” (J Nat Prod, 2005).

One test deals with Bel-7402. The test is described as follows: Cytotoxicity against human Bel7402 cells after 72 hrs by SRB assay. Type of test: functional, cell-based. Particulars: Bel-7402, 72 h. Background: The SRB assay estimates cell density from bound dye.
The subject of the next test is K562. In words: Cytotoxicity against human K562 cells after 72 hrs by MTT assay. The class given is functional, cell-based. Particulars: K562, 72 h. In general terms: Tetrazolium dyes change colour on reduction, which living cells bring about.

For the compound `CC(C)[C@H](C)[C@@H]1O[C@H]1[C@](C)(O)[C@H]1CC[C@H]2[C@@H]3C[C@H](O[C@@H]4O[C@H](CO)[C@@H](O)[C@H](O[C@@H]5O[C@H](C)[C@@H](O[C@@H]6OC[C@H](O)[C@H](O)[C@H]6O[C@@H]6O[C@H](C)[C@H](O)[C@H](O)[C@H]6O)[C@H](O)[C@H]5O[C@@H]5O[C@H](C)[C@H](O)[C@H](O)[C@H]5O)[C@H]4O)[C@H]4C[C@@H](OS(=O)(=O)[O-])CC[C@]4(C)C3=CC[C@]12C.[Na+]` [NOVAEGUINOSIDE II], the IC50 (usually the point on the concentration scale where inhibition reaches its midpoint) worked out at 4.1 µg/mL with Bel-7402 and 4.9 µg/mL in the test on K562.
The corresponding values for `CC(C)[C@H](C)[C@@H]1O[C@H]1[C@](C)(O)[C@H]1CC[C@H]2[C@@H]3C[C@H](O[C@@H]4O[C@H](CO)[C@@H](O)[C@H](O[C@@H]5O[C@H](C)[C@@H](O[C@@H]6O[C@H](C)[C@H](O)[C@H](O)[C@H]6O[C@@H]6O[C@H](C)[C@H](O)[C@H](O)[C@H]6O)[C@H](O)[C@H]5O[C@@H]5O[C@H](C)[C@H](O)[C@H](O)[C@H]5O)[C@H]4O)[C@H]4C[C@@H](OS(=O)(=O)[O-])CC[C@]4(C)C3=CC[C@]12C.[Na+]` [NOVAEGUINOSIDE I] are 9.2 µg/mL and 8.6 µg/mL.
In the case of `CC(C)CC(=O)C[C@](C)(O)[C@H]1CC[C@H]2[C@@H]3C[C@H](O[C@@H]4O[C@H](C)[C@@H](O)[C@H](O[C@@H]5OC[C@@H](O[C@@H]6O[C@H](C)[C@H](O)[C@H](O)[C@H]6O[C@@H]6O[C@H](C)[C@H](O)[C@H](O)[C@H]6O)[C@H](O)[C@H]5O[C@@H]5O[C@H](C)[C@H](O)[C@H](O)[C@H]5O)[C@H]4O)[C@H]4C[C@@H](OS(=O)(=O)[O-])CC[C@]4(C)C3=CC[C@@]21C.[Na+]` [regularoside B], the IC50 with Bel-7402 is 14.5 µg/mL; with K562, 17.4 µg/mL.
